Target: NAMPT (Mus musculus, UniProt Q99KQ4)
Assay: co-crystal structure
Type: binding

NAMPT, sequence (Q99KQ4 whole entry): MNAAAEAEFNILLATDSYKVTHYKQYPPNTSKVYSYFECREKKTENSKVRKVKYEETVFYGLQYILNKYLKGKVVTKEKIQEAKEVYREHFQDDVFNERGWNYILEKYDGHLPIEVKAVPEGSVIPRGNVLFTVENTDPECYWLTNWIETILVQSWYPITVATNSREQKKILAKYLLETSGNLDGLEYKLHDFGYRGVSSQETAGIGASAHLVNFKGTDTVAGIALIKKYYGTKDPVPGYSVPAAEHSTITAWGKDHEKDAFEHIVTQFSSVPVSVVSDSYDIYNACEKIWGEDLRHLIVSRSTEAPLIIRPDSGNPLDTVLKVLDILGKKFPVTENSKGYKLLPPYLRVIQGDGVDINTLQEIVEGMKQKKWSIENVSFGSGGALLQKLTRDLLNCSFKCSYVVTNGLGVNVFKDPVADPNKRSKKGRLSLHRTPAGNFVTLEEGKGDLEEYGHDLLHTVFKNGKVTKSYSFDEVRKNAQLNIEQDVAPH

**Q.** With `O=C(NCc1ccc([C@@H]2O[C@H](COP(=O)(O)O)[C@@H](O)[C@H]2O)cc1)Nc1ccc(S(=O)(=O)c2ccccc2)cc1` [9a, ((2R,3S,4R,5S)-3,4-Dihydroxy-5-(4-((3-(4-(phenylsulfonyl)phenyl)ureido)methyl)phenyl)tetrahydrofuran-2-yl)methyldihydrogenphosphate] as the molecule, how does the co-crystal structure read?
**A.** Compound 9a bound to dimeric NAMPT (PDB: 7Q8T).
